Experimental data as given in patent publication US20250296938A1, “Compounds that Interact with the Ras Superfamily for the Treatment of Cancers, Inflammatory Diseases, Rasopathies, and Fibrotic Disease” (SHY Therapeutics, LLC, priority 2018, published 2025).
Where two headings read alike, the source gives them in different places.

What was measured:
Assay in all cases: Ras GTP binding domain inhibition assay (Cy3-GTP/Cy5-GTP competition)
KRas G12D mutant = biological target: T1, KRas G12D mutant (Homo sapiens, UniProt P01116, G12D); conditions: 20 μM
T1 construct: fused on or other part: His tag, used for capture on nickel-coated plates
In short: (§1)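 Ni-plate immobilised His-Ras, overnight 4 °C; cpd 20 μM (or dilution series for IC50), 1% DMSO, 3 h RT; optional His-Sos […] last hour; Cy3- or Cy5-GTP 100 nM, 45 min RT; 3× wash; bound fluorescence read.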

KRas G12C mutant = tested on: KRas G12C mutant; parameters: species or system human; conditions: 20 μM
In short: as §1

KRas wild type = tested on: KRas wild type; parameters: species or system human; conditions: 20 μM; for KRas wild type % inh.: without SOS (Table 7A); for KRas wild type: % inh.: without SOS
In short: as §1

KRas Q61H mutant = tested on: KRas Q61H mutant; parameters: species or system human; conditions: 20 μM
In short: as §1

[1] = with SOS (Table 7A), read-out: KRas G12D mutant + SOS: % inh.
[2] = without SOS (Table 7A), read-out: KRas G12D mutant: % inh.
[3] = with SOS, read-out: KRas G-12D mutant + SOS: % inh.
[4] = without SOS, read-out: KRas G12D mutant: % inh.

Row | inhibition at 20 µM (KRas G12D mutant; [1]) | inhibition at 20 µM (KRas G12D mutant; [2]) | KRas G12C mutant + SOS: % inh. (KRas G12C mutant; with SOS (Table 7A)) | KRas G12C mutant: % inh. (KRas G12C mutant; without SOS (Table 7A)) | KRas wild type + SOS: % inh. (KRas wild type; with SOS (Table 7A)) | KRas wild type % inh. (KRas wild type) | KRas Q61H mutant + SOS: % inh. (KRas Q61H mutant; with SOS (Table 7A)) | KRas Q61H mutant: % inh. (KRas Q61H mutant; without SOS (Table 7A)) | inhibition at 20 µM (KRas G12D mutant; [3]) | inhibition at 20 µM (KRas G12D mutant; [4]) | KRas G12C mutant + SOS: % inh. (KRas G12C mutant; with SOS) | KRas G12C mutant: % inh. (KRas G12C mutant; without SOS) | KRas wild type + SOS: % inh. (KRas wild type; with SOS) | KRas wild type: % inh. (KRas wild type) | KRas Q61H mutant + SOS: % inh. (KRas Q61H mutant; with SOS) | KRas Q61H mutant: % inh. (KRas Q61H mutant; without SOS) | Compound
1 | 1 to 25% | 26 to 50% | A (1-25% inhibition) | A (1-25% inhibition) | A (1-25% inhibition) | B (26-50% inhibition) | A (1-25% inhibition) | B (26-50% inhibition) | – | – | – | – | – | – | – | – | COc1nc(-c2ccccn2)nc2c(-c3ccccn3)csc12 [drawing 913]
2 | 51 to 75% | 26 to 50% | D (76-100% inhibition) | C (51-75% inhibition) | D (76-100% inhibition) | C (51-75% inhibition) | D (76-100% inhibition) | D (76-100% inhibition) | – | – | – | – | – | – | – | – | COc1cccc(-c2sc3nc(-c4nccn4C)nc(N[C@H]4C[C@@H](OC)C4)c3c2-c2ccccc2)c1F [drawing 891]
3 | – | – | – | – | – | – | – | – | 51 to 75% | 51 to 75% | C (51-75% inhibition) | D (76-100% inhibition) | B (26-50% inhibition) | C (51-75% inhibition) | C (51-75% inhibition) | C (51-75% inhibition) | Oc1nc(-c2ncc3n2CCCC3)nc2c(-c3ccccn3)csc12 [drawing 833]
4 | – | – | – | – | – | – | – | – | 1 to 25% | 26 to 50% | B (26-50% inhibition) | B (26-50% inhibition) | A (1-25% inhibition) | C (51-75% inhibition) | B (26-50% inhibition) | B (26-50% inhibition) | Oc1nc(-c2cn3ccccc3n2)nc2c(-c3ccccn3)csc12 [drawing 816]
5 | – | – | – | – | – | – | – | – | 26 to 50% | 26 to 50% | D (76-100% inhibition) | B (26-50% inhibition) | D (76-100% inhibition) | C (51-75% inhibition) | D (76-100% inhibition) | C (51-75% inhibition) | COCCNc1nc(-c2cn(C)cn2)nc2sc(-c3cccc(OC)c3Cl)c(-c3ccc(OC)cc3)c12 [drawing 797]
6 | 51 to 75% | 26 to 50% | D (76-100% inhibition) | C (51-75% inhibition) | D (76-100% inhibition) | C (51-75% inhibition) | D (76-100% inhibition) | C (51-75% inhibition) | – | – | – | – | – | – | – | – | CO[C@H]1C[C@@H](Nc2nc(-c3nccn3C)nc3sc(-c4ccn(C)n4)c(-c4ccccc4)c23)C1.Cl
7 | 26 to 50% | 26 to 50% | A (1-25% inhibition) | B (26-50% inhibition) | A (1-25% inhibition) | B (26-50% inhibition) | B (26-50% inhibition) | B (26-50% inhibition) | – | – | – | – | – | – | – | – | CO[C@H]1CC[C@@H](Nc2nc(-c3nccn3C)nc(C(=O)N3CCc4c(O)cccc4C3)c2C)C1 [drawing 901]
8 | – | – | – | – | – | – | – | – | 51 to 75% | 51 to 75% | D (76-100% inhibition) | A (1-25% inhibition) | D (76-100% inhibition) | B (26-50% inhibition) | D (76-100% inhibition) | B (26-50% inhibition) | COC1CCN(c2nc(-c3nccn3C)nc3sc(-c4ccccc4CO)c(-c4ccccc4)c23)C1.Cl (stereo not shown)
